Test results reported in ChEMBL document CHEMBL5108056, “Discovery of Isoform-Selective Akt3 Degraders Overcoming Osimertinib-Induced Resistance in Non-Small Cell Lung Cancer Cells” (J Med Chem, 2022).
The source made the active and inactive calls. No cut-off for these calls is given here.

Assays:
[1] = biological target: T1, RAC-alpha serine/threonine-protein kinase (Homo sapiens, UniProt P31749); assay: Induction of AKT1 degradation in human NCI-H1975 cells assessed as reduction in AKT1 protein level incubated for 24 hrs under serum free medium by Western blot analysis; format: cell-based
T1 sequence (P31749 whole entry): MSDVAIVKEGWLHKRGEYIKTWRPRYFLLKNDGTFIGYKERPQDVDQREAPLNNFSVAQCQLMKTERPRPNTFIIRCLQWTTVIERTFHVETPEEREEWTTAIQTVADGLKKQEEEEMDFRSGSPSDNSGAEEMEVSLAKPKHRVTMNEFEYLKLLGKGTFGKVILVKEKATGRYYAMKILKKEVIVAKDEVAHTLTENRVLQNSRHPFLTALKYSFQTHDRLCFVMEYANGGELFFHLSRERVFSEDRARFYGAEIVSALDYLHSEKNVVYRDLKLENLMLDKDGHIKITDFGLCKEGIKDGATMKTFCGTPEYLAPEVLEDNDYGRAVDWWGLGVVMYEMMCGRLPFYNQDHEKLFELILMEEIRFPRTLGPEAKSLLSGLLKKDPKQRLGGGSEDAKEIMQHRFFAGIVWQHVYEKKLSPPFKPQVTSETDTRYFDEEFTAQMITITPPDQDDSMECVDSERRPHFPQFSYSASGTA

[2] = biological target: T2, RAC-beta serine/threonine-protein kinase (Homo sapiens, UniProt P31751); assay: Induction of AKT2 degradation in human NCI-H1975 cells assessed as reduction in AKT2 protein level incubated for 24 hrs under serum free medium by Western blot analysis; format: cell-based
T2 sequence (P31751 whole entry): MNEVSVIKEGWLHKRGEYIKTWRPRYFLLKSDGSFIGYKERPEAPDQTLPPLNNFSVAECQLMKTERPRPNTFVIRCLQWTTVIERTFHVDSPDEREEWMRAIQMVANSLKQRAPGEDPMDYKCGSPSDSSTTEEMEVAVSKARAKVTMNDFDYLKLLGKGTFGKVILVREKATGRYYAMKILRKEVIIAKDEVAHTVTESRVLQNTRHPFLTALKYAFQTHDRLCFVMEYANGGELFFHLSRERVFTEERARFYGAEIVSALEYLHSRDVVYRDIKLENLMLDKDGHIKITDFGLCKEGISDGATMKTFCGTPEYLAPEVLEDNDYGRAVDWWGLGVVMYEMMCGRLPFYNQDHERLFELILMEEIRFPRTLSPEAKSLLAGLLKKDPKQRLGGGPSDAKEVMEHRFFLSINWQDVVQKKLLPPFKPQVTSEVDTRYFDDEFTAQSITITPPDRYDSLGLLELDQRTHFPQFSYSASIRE

[3] = biological target: T3, RAC-gamma serine/threonine-protein kinase (Homo sapiens, UniProt Q9Y243); assay: Induction of AKT3 degradation in human NCI-H1975 cells assessed as reduction in AKT3 protein level incubated for 24 hrs under serum free medium by Western blot analysis; format: cell-based
T3 sequence (Q9Y243 whole entry): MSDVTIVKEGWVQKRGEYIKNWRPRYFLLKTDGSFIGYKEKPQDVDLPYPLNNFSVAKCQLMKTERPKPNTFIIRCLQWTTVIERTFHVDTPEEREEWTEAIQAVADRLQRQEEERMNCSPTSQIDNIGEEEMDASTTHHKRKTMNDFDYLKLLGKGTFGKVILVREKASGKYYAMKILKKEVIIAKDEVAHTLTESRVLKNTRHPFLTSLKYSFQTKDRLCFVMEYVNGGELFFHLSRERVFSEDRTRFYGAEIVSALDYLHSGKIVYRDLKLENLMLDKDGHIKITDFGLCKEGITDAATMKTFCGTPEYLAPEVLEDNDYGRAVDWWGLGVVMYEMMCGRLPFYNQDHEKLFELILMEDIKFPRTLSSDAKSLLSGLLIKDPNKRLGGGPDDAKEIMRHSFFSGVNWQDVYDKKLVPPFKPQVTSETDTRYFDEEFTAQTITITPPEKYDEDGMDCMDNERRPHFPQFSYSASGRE

[4] = biological target: T3, RAC-gamma serine/threonine-protein kinase; assay: Induction of AKT3 degradation in human NCI-H1975 cells assessed as reduction in AKT3 protein level at 1000 nM incubated for 24 hrs under serum free medium by Western blot analysis relative to control; format: cell-based
[5] = biological target: T2, RAC-beta serine/threonine-protein kinase; assay: Induction of AKT2 degradation in human NCI-H1975 cells assessed as reduction in AKT2 protein level at 1000 nM incubated for 24 hrs under serum free medium by Western blot analysis relative to control; format: cell-based
[6] = biological target: T1, RAC-alpha serine/threonine-protein kinase; assay: Induction of AKT1 degradation in human NCI-H1975 cells assessed as reduction in AKT1 protein level at 1000 nM incubated for 24 hrs under serum free medium by Western blot analysis relative to control; format: cell-based
[7] = biological target: T3, RAC-gamma serine/threonine-protein kinase; assay: Binding affinity to full length N-terminal His6-sumo tagged AKT3 (unknown origin) expressed Escherichia coli BL21 (DE3) cells by pull-down/ Western blot analysis
[8] = biological target: T3, RAC-gamma serine/threonine-protein kinase; assay: Binding affinity to full length N-terminal His6-sumo tagged AKT3 (unknown origin) expressed Escherichia coli BL21 (DE3) cells incubated for 2 hrs by pull-down/ LC-MS analysis
[9] = biological target: Epidermal growth factor receptor (Homo sapiens, UniProt P00533); assay: Inhibition of EGFR in human NCI-H1975 cells; format: cell-based
Chain of Epidermal growth factor receptor (P00533 whole entry): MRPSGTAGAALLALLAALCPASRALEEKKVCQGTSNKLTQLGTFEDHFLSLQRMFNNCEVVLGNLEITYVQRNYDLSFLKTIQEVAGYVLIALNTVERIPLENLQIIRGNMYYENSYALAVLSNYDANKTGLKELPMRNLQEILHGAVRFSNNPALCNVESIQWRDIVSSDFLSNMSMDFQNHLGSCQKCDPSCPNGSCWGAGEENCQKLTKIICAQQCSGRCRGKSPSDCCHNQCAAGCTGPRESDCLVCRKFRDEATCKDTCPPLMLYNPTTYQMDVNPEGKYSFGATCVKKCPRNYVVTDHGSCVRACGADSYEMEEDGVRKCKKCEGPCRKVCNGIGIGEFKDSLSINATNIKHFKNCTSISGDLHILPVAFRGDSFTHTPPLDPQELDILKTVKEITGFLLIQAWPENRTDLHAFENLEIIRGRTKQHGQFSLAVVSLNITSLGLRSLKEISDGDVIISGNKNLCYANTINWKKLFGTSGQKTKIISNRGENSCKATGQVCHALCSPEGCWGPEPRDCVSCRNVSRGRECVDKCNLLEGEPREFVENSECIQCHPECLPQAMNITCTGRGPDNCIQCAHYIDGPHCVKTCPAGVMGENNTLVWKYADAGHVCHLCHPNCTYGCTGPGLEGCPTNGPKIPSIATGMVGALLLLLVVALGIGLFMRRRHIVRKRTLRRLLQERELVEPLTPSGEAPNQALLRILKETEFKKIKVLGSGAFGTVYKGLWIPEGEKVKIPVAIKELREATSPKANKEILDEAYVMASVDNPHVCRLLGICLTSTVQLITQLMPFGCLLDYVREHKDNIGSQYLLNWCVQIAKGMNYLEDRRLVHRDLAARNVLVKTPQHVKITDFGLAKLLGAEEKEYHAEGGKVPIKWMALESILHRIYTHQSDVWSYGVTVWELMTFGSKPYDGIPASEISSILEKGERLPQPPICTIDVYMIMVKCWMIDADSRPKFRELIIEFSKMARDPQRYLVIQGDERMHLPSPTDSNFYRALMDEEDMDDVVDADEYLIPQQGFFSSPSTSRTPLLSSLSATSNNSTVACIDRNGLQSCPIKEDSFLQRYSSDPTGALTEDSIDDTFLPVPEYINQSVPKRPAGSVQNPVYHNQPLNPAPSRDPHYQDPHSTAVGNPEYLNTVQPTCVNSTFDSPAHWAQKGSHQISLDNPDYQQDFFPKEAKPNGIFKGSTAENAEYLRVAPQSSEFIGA

NCI-H1975 = assay: Antiproliferative activity against human osimertinib resistant NCI-H1975 cells assessed as reduction in cell viability measured after 24 hrs by CCK-8 assay; format: functional, cell-based; details: NCI-H1975, 24 h

Structure (SMILES) | EC50 [1] | EC50 [2] | EC50 [3] | Emax [4] | Emax [5] | Emax [6] | Activity [7] | Activity [8] | EC50 [9] | IC50 (NCI-H1975)
C=CC(=O)Nc1cccc(-n2c(=O)cc(C)c3cnc(Nc4ccc(N5CCN(CCCCCCNC(=O)CC67CC8CC(CC(C8)C6)C7)CC5)cc4OC)nc32)c1 | > 1000 nM | > 1000 nM | 1000 nM |  |  |  |  |  |  | 
C=CC(=O)Nc1cccc(-n2c(=O)cc(C)c3cnc(Nc4ccc(N5CCN(CCCCCCCCNC(=O)CC67CC8CC(CC(C8)C6)C7)CC5)cc4OC)nc32)c1 | 168 nM | 82 nM | 52 nM | 75% | 69% | 55% |  |  |  | 
C#CCN(CCCCCCCCCCCCN1CCN(c2ccc(Nc3ncc4c(C)cc(=O)n(-c5cccc(NC(=O)C6CC6)c5)c4n3)c(OC)c2)CC1)C(=O)CC12CC3CC(CC(C3)C1)C2 |  |  |  |  |  |  | Active | Active |  | 
C=CC(=O)Nc1cccc(-n2c(=O)cc(C)c3cnc(Nc4ccc(N5CCN(CCOCCOCCNC(=O)CC67CC8CC(CC(C8)C6)C7)CC5)cc4OC)nc32)c1 | 300 nM | > 1000 nM | 564 nM | 55% |  | 55% |  |  |  | 
C=CC(=O)Nc1cccc(-n2c(=O)cc(C)c3cnc(Nc4ccc(N5CCN(CCCCCCCCCCNC(=O)CC67CC8CC(CC(C8)C6)C7)CC5)cc4OC)nc32)c1 | > 1000 nM | > 1000 nM | 402 nM | 51% |  |  |  |  |  | 
COc1cc(N2CCN(CCCCCCCCCCCCNC(=O)CC34CC5CC(CC(C5)C3)C4)CC2)ccc1Nc1ncc2c(C)cc(=O)n(-c3cccc(NC(=O)C(C)(C)C)c3)c2n1 | > 1000 nM | > 1000 nM | 57 nM | 77% |  |  |  |  |  | 
COc1cc(N2CCN(CCCCCCCCCCCCNC(=O)CC34CC5CC(CC(C5)C3)C4)CC2)ccc1Nc1ncc2c(C)cc(=O)n(-c3cccc(NC(=O)C(C)C)c3)c2n1 | > 1000 nM | > 1000 nM | 33 nM | 71% |  |  |  |  | 143 nM | 
CC(C)NC[C@@H](C(=O)N1CCN(c2ncnc3c2[C@H](C)C[C@H]3O)CC1)c1ccc(Cl)cc1 [IPATASERTIB] |  |  |  |  |  |  |  |  |  | > 20000 nM
C[C@@H]1CC(O)c2ncnc(N3CCN(C(=O)[C@H](CNCCCCCCCCCCc4cccc5c4C(=O)N(C4CCC(=O)NC4=O)C5=O)c4ccc(Cl)cc4)CC3)c21 (mixture of isomers) |  |  |  |  |  |  |  |  |  | 2420 nM
C=CC(=O)Nc1cccc(-n2c(=O)cc(C)c3cnc(Nc4ccc(N5CCN(CCCCCCCCCCCCCCNC(=O)CC67CC8CC(CC(C8)C6)C7)CC5)cc4OC)nc32)c1 | > 1000 nM | > 1000 nM | 120 nM | 75% |  |  |  |  |  | 
